{"source": "patent US8129197B2", "about": "“Cholesterol loaded insect cell membranes as test proteins” (SOLVO Biotechnológial ZRT., priority 2006, dated 2012)", "molecules": {"B1": {"name": "wild-type ABCG2 (Homo sapiens) (protein)", "chain": "MSSSNVEVFIPVSQGNTNGFPATASNDLKAFTEGAVLSFHNICYRVKLKSGFLPCRKPVEKEILSNINGIMKPGLNAILGPTGGGKSSLLDVLAARKDPSGLSGDVLINGAPRPANFKCNSGYVVQDDVVMGTLTVRENLQFSAALRLATTMTNHEKNERINRVIQELGLDKVADSKVGTQFIRGVSGGERKRTSIGMELITDPSILFLDEPTTGLDSSTANAVLLLLKRMSKQGRTIIFSIHQPRYSIFKLFDSLTLLASGRLMFHGPAQEALGYFESAGYHCEAYNNPADFFLDIINGDSTAVALNREEDFKATEIIEPSKQDKPLIEKLAEIYVNSSFYKETKAELHQLSGGEKKKKITVFKEISYTTSFCHQLRWVSKRSFKNLLGNPQASIAQIIVTVVLGLVIGAIYFGLKNDSTGIQNRAGVLFFLTTNQCFSSVSAVELFVVEKKLFIHEYISGYYRVSSYFLGKLLSDLLPMRMLPSIIFTCIVYFMLGLKPKADAFFVMMFTLMMVAYSASSMALAIAAGQSVVSVATLLMTICFVFMMIFSGLLVNLTTIASWLSWLQYFSIPRYGFTALQHNEFLGQNFCPGLNATGNNPCNYATCTGEEYLVKQGIDLSPWGLWKNHVALACMIVIFLTIAYLKLLFLKKYS"}, "B2": {"name": "ABCG2 (Homo sapiens) (protein)", "chain": "B1 chain"}}, "key": {"ABCG2 [1]": {"biological_target": "T1, ABCG2 (Homo sapiens, UniProt Q9UNQ0)", "T1 sequence (Q9UNQ0 1-655)": "B1 chain", "test": "Vanadate sensitive ABCG2-ATPase assay in ABCG2-Sf9 (insect cell) membranes", "procedure": "(§1) Measurement of transporter activity: The ATPase activity of transporters are measured based on their vanadate sensitivity as known in the literature (see Noe et al. Hepatology, 2001, Vol. 33, No. 5, pp 1223-31; Schmitt et al. J. Neural. Transm., in press; Özvegy C et al. “Functional characterization of the human multidrug transporter, ABCG2, expressed in insect cells” Biochem Biophys Res Commun. 2001 July 6; 285(1):111-7.; Sarkadi, B. et al. (1992) Expression of the human multidrug resistance cDNA in insect cells generates a high activity drug-stimulated membrane ATPase. J Biol Chem 267: 4854-4858.).\n(§2) The samples treated with cyclodextrin, or cholesterol@RAMEB complex was compared with untreated vesicles.\n(§3) Briefly, as an example, membrane vesicles (20 μg/well) were incubated in ATPase assay buffer (10 mM MgCl2, 40 mM MOPS-Tris (pH 7.0), 50 mM KCl, 5 mM dithiothreitol, 0.1 mM EGTA, 4 mM sodium azide, 1 mM ouabain), 5 mM ATP and various concentrations of test drugs for 40 min at 37° C. ATPase activities were determined as the difference of inorganic phosphate liberation measured with and without the presence of 1.2 mM sodium orthovanadate (vanadate-sensitive ATPase activity).\nEC50 is defined according to the International Union of Pharmacology Committee (Neubig, R. R., Spedding, M., Kenakin, T. and Christopoulos, A. (2003) International Union of Pharmacology Committee on Receptor Nomenclature and Drug Classification. XXXVIII. Update on terms and symbols in quantitative pharmacology. Pharmacol Rev 55: 597-606.).\nThe Michaelis-Menten parameters of maximal velocity (Vmax) and drug affinity (Km) were obtained from plots of the ATPase activity as a function of test drug concentration by nonlinear regression of the following equation:\nwhere v=enzyme activity (nmol Pi/min/mg), Vmax=maximal ATPase activity (nmol Pi/min/mg), Km=Michaelis-Menten constant for the tested substrate (nM) and [S] substrate concentration (nM). The equation 3 was used also for curve fitting on vesicular transport graphs."}, "ABCG2 [2]": {"biological_target": "T1, ABCG2", "test": "Vanadate sensitive ABCG2-ATPase assay in ABCG2-M (mammalian cell) membranes", "procedure": "Human membrane vesicle preparations (ABCG2-M) as well as membrane vesicle preparations obtained from insect cells expressing ABCG2, (MXR-Sf9) were obtained from Solvo Biotechnology (Budapest, Hungary). Both membranes are overexpressing the wild type version of ABCG2. The insect membrane vesicle preparations were produced using recombinant baculoviruses encoding ABCG2 (Ozvegy et al., 2002). Sf9 cells were cultured and infected with recombinant baculovirus stocks as described earlier (Sarkadi et al., 1992). Purified membrane vesicles from baculovirus-infected Sf9 cells were prepared essentially as described previously (Sarkadi et al., 1992). Membrane protein content was determined using the BCA method (Pierce Biotechnology, Rockford, Ill., USA).\nas §1, §2, §3"}, "wild-type ABCG2": {"biological_target": "T2, wild-type ABCG2 (Homo sapiens, UniProt Q9UNQ0)", "T2 sequence (Q9UNQ0 1-655)": "B1 chain", "test": "Vesicular transport assay, inside-out ABCG2-Sf9 membrane vesicles", "procedure": "Measurement of the vesicular transport activity: The transport activity measurements were carried out with purified membrane vesicles containing ABCG2 or Bsep isolated from baculovirus infected Sf9 (Spodoptera frugiperda) cells or mammalian (ABCG2-M) cells. The membrane preparations contain 5-16% closed, inside-out oriented, membrane vesicles. The transporter pumps the molecules inside of these vesicles. The vesicles can be separated by rapidly filtrating of the membrane suspension through a glass filter or through a nitrocellulose membrane (using vacuum).\nThe quantitative determination of the transported molecule can be done in several ways, like: HPLC, LC/MS, but also fluorescent or radioactive labeling is also suitable. Tritium labeled substrates were used in the assays and the mode of detection was liquid-scintillation.\nMeasurement of the vesicular transport activity in case of ABCG2: More closely, as examples, inside-out membrane vesicles were incubated in the presence or absence of 4 mM ATP. […] The transport was stopped by addition of cold wash buffer (40 mM MOPS-Tris (pH 7.0), 70 mM KCl).\nThe transport was stopped by addition of cold wash buffer (10 mM Tris-HCl, pH 7.4; 250 mM sucrose and 100 mM NaCl).\nFor estrone-3-sulfate vesicular transport 10 mM Tris-HCl, (pH 7.4), 250 mM sucrose, and 10 mM MgCl2 containing buffer were incubated at 32° C. for 1 min. The transport was stopped by addition of cold wash buffer (10 mM Tris-HCl, pH 7.4; 250 mM sucrose and 100 mM NaCl).\nThe incubation mix was then rapidly filtered through class B glass fiber filters (pore size, 0.1 μm). Filters were washed with 5×200 μl of ice cold wash buffer and radioactivity retained on the filter was measured by liquid scintillation counting. ATP-dependent transport was calculated by subtracting the values obtained in the absence of ATP from those in the presence of ATP.\nExemplary Assay Design and Main Steps for ABCG2 • Prepare an appropriate concentration of membrane suspension in assay buffer; add the unlabeled and ^3H-labeled substrates to the suspension."}, "[3]": {"substrate": "CN(Cc1cnc2nc(N)nc(N)c2n1)c1ccc(C(=O)N[C@@H](CCC(=O)O)C(=O)O)cc1", "test": "cells, lysate or membranes named"}}, "note": "Read-outs that look alike come from different tables or passages of the source."}
{"molecule": "Nc1ncnc2c1ncn2[C@@H]1O[C@H](COP(=O)(O)OP(=O)(O)OP(=O)(O)O)[C@@H](O)[C@H]1O", "note": "[ATP]", "values": [{"measurement": "Km", "setting": "ABCG2 [1]", "result": 2000, "unit": "µM"}, {"measurement": "Km", "setting": "ABCG2 [2]; read-out: KM of vanadate sensitive basal ATPase activity with respect to ATP, ABCG2-M membranes", "result": 2200, "unit": "µM"}, {"measurement": "ATP concentration of maximum MTX transport rate", "setting": "wild-type ABCG2", "result": "about 5 mM"}, {"measurement": "Km", "setting": "wild-type ABCG2", "result": "600 to 800", "unit": "µM"}]}
{"molecule": "COc1cccc2c1C(=O)c1c(O)c3c(c(O)c1C2=O)C[C@@](O)(C(=O)CO)C[C@@H]3O[C@H]1C[C@H](N)[C@H](O)[C@H](C)O1", "note": "[Doxorubicin]", "values": [{"measurement": "Level of stimulation (vanadate sensitive ATPase activity in %)", "setting": "ABCG2 [1]; human, 40 min, 50 uM, pH 7", "result": "83 ± 18 (3) %"}]}
{"molecule": "C[C@]12CC[C@@H]3c4ccc(O)cc4CC[C@H]3[C@@H]1CC[C@@H]2O[C@@H]1O[C@H](C(=O)O)[C@@H](O)[C@H](O)[C@H]1O", "note": "[ESG, estradiol 17-beta glucuronide]", "values": [{"measurement": "apparent Vmax of ESG uptake", "setting": "wild-type ABCG2; cholesterol-loaded vesicles", "result": "700 pmol ESG/mg membrane protein/min"}, {"measurement": "apparent Vmax of ESG uptake", "setting": "wild-type ABCG2; control Sf9 membrane vesicles", "result": "less than 50 pmol ESG/mg membrane protein/min"}, {"measurement": "Km", "setting": "wild-type ABCG2; read-out: apparent Km for ESG, cholesterol-loaded vesicles", "result": "~45", "unit": "µM"}]}
{"molecule": "C[C@]12CC[C@@H]3c4ccc(OS(=O)(=O)O)cc4CC[C@H]3[C@@H]1CCC2=O", "note": "[Estrone-3-sulfate, estrone 3-sulfate]", "values": [{"measurement": "Vmax (ABCG2-ATPase)", "setting": "ABCG2 [1]", "result": 35.58, "unit": "nmol Pi/mg prot./min"}, {"measurement": "Vmax (ABCG2-ATPase)", "setting": "ABCG2 [2]", "result": 38.87, "unit": "nmol Pi/mg prot./min"}]}
{"molecule": "O=C(O)c1cc(/N=N/c2ccc(S(=O)(=O)Nc3ccccn3)cc2)ccc1O", "note": "[Sulfasalazine, sulfasalazine]", "values": [{"measurement": "Effect on ABCG2-ATPase activity (in words)", "setting": "ABCG2 [1]", "result": "weak activator"}, {"measurement": "Level of stimulation (vanadate sensitive ATPase activity in %)", "setting": "ABCG2 [1]; human, 40 min, 20 uM, pH 7", "result": "71% (3)"}, {"measurement": "Increase of vanadate sensitive ABCG2 ATPase activity in the presence of the substrate", "setting": "ABCG2 [1]; human, 40 min, pH 7", "result": 5, "unit": "nmol/Pi/mg prot/min"}, {"measurement": "Vanadate sensitive ABCG2 ATPase activity activated by the substrate", "setting": "ABCG2 [1]; human, 40 min, pH 7", "result": 58, "unit": "nmol/Pi/mg prot/min"}, {"measurement": "Effect on ABCG2-ATPase activity (in words)", "setting": "ABCG2 [2]", "result": "significantly stimulated"}, {"measurement": "Vanadate sensitive ABCG2 ATPase activity activated by the substrate", "setting": "ABCG2 [2]; human, 40 min, pH 7", "result": 40, "unit": "nmol/Pi/mg prot/min"}]}
{"molecule": "CC[C@@]1(O)C(=O)OCc2c1cc1n(c2=O)Cc2cc3c(CN(C)C)c(O)ccc3nc2-1", "note": "[Topotecan, topotecan]", "values": [{"measurement": "Level of stimulation (vanadate sensitive ATPase activity in %)", "setting": "ABCG2 [1]; human, 40 min, 200 uM, pH 7", "result": 31, "unit": "%"}, {"measurement": "Effect on ABCG2-ATPase activity (in words)", "setting": "ABCG2 [1]; human, 40 min, pH 7", "result": "can not be activated"}, {"measurement": "Effect on ABCG2-ATPase activity (in words)", "setting": "ABCG2 [2]", "result": "significantly stimulated"}]}
{"molecule": "COc1cc2ncnc(Nc3ccc(F)c(Cl)c3)c2cc1OCCCN1CCOCC1", "note": "[ZD 1839, Gefitinib]", "values": [{"measurement": "Level of stimulation (vanadate sensitive ATPase activity in %)", "setting": "ABCG2 [1]; human, 40 min, 5 uM, pH 7", "result": "73 ± 19 (3) %"}]}
{"molecule": "O=C1c2c(O)ccc(O)c2C(=O)c2c(NCCNCCO)ccc(NCCNCCO)c21", "note": "[mitoxantrone]", "values": [{"measurement": "Effect on ABCG2-ATPase activity (in words)", "setting": "ABCG2 [1]", "result": "did not display any effect"}]}
{"molecule": "Randomly methylated-β-cyclodextrin [CD]", "values": [{"measurement": "Effect of membrane pretreatment on ABCG2-dependent transport activity (in words)", "setting": "wild-type ABCG2", "result": "did not significantly affect"}]}
{"molecule": "rhodamine", "values": [{"measurement": "Effect on ABCG2-ATPase activity (in words)", "setting": "ABCG2 [1]; cholesterol loaded Sf9 membranes", "result": "did not display any effect"}]}
{"molecule": "B1", "values": [{"measurement": "Km", "setting": "[3]; other: ABCG2-Sf9 membranes", "result": 3900, "unit": "µM"}, {"measurement": "Km", "setting": "[3]; other: both untreated and C-CD pretreated vesicles", "result": 500, "unit": "µM"}, {"measurement": "Km", "setting": "[3]; other: untreated membranes, ± S.D.", "result": 935, "unit": "µM"}]}
{"molecule": "B2", "values": [{"measurement": "Km", "setting": "[3]; other: ABCG2-M membranes, pH 7.0, 37.0 °C", "result": 3600, "unit": "µM"}]}
